Experimental data reported in US6838478B2, “Amino acid derivatives and their use as thrombin inhibitors” (AstraZeneca AB, priority 1996, dated 2005).

Target: T1, Human thrombin (Homo sapiens, UniProt P00734)
T1 construct: purchased Sigma Chem Co T 6769
Assay: Test A: determination of thrombin clotting time (TT)
Type: biochemical
Conditions: concentration of inhibitor that doubles the thrombin clotting time for human plasma
Method: Determination of Thrombin Clotting Time (TT)
Human thrombin (T 6769, Sigma Chem Co) in buffer solution, pH 7.4, 100 μI, and inhibitor solution, 100 μl, were incubated for one min. Pooled normal citrated human plasma, 100 μl, was then added and the clotting time measured in an automatic device (KC 10, Amelung).
The clotting time in seconds was plotted against the inhibitor concentration, and the IC50TT was determined by interpolation.
IC50TT is the concentration of inhibitor in the test that doubles the thrombin clotting time for human plasma.

Structure (SMILES) | IC50
COc1cccc(C(CO)C(=O)N2CCC2C(=O)NCc2ccc(C(N)=NO)cc2)c1 (single isomer, unassigned) [Example 9, (R)- or (S)-3-Methoxyphenyl-CH(CH2OH)—C(O)-Aze-Pab-OH] | > 1000 nM
COc1cccc(C(CO)C(=O)N2CCCC2C(=O)NCc2ccc(C(N)=NC(=O)OCc3ccccc3)cc2)c1 (single isomer, unassigned) [Example 10, (S)- or (R)-3-Methoxyphenyl-CH(CH2OH)CO-Pro-Pab(Z)] | > 1000 nM
COc1cccc(C(CO)C(=O)N2CCCC2C(=O)NCc2ccc(C(N)=NO)cc2)c1 (single isomer, unassigned) [Example 13, (S)- or (R)-3-Methoxyphenyl-CH(CH2OH)—C(O)-Pro-Pab-OH] | > 1000 nM
CCC(=O)ON=C(N)c1ccc(CNC(=O)C2CCCN2C(=O)C(CO)c2cccc(OC)c2)cc1 (single isomer, unassigned) [Example 14, (S)- or (R)-3-Methoxyphenyl-CH(CH2OH)—C(O)-Pro-Pab-OC(O)Et] | > 1000 nM
NC(=NO)c1ccc(CNC(=O)C2CCCN2C(=O)C(CO)c2ccccc2)cc1 [Example 8, (R,S)-Ph-CH(CH2OH)—C(O)-Pro-Pab-OH] | > 1000 nM
COCC(C)(C(=O)N1CCCC1C(=O)NCc1ccc(C(N)=NC(=O)OCc2ccccc2)cc1)c1ccccc1 [Example 40, (R,S)-Ph-C(Me)(CH2OMe)-C(O)-Pro-Pab(Z)] | > 1000 nM
